Measurements published in patent US20120192315A1, “RESISTANCE GENES AND PROTEINS ACTIVE AGAINST FUSARIUM ROOT ROTS, CYST NEMATODES AND SOYBEAN SUDDEN DEATH SYNDROME AND METHODS EMPLOYING SAME” (Southern Illinois University Carbondale, priority 2011, published 2012).
“Also recorded” adds a separate entry of the source. Read-outs that look alike come from different tables or passages of the source. Where no end group is shown, it is not given here.

Key:
[1] = target: GmRLK18-1 LRR domain (RHG1); experiment: Binding of CLE like peptides to purified LRR domain of the RLK at rhg1/Rfs2, titration by luminescence spectrometry; parameters: species or system Glycine max
Text: (§1) The full length rhg1/Rfs2 or Rhg4 cDNA from the SCN resistant cultivar, ‘Forrest’ (Bruker et al. 2005), was sub-cloned in pGEM-T vector. For the rhg1/Rfs2 LRR DNA was PCR amplified using internal primers. Primers were designed to copy and amplify a 1032 bp region encompassing the 10 LRRs of rhg1. The sense primer 141-485F: 5′-[…]-3′ contained an eight base linker followed by an NcoI restriction site (in bold) to allow in-frame cloning into the expression vector pET30A (+). A factor Xa site (underlined) was incorporated in the sense primer in order to cleave the fusion protein. The anti-sense primer 141-485R: 5′-[…]-3′ contained a six base linker followed by an XhoI restriction site (in bold). The stop codon (underlined) was added to the primer sequence to terminate the RHG1 translation. The amplicon obtained by PCR was isolated by agarose gel electrophoresis and purified using gel elution. The amplified fragment was subcloned into pGEMT vector by ligation of the 3′T vector overhang with the 3′A added by Taq polymerase during template amplification. The complementarity between the vector 3′T overhangs and the PCR product 3′A overhangs allowed for direct ligation of PCR products into the vector. pGEMT vector was transformed into DH5a cells, positive colonies were selected and grown overnight in 5 ml of 2-fold YT medium. The recombinant plasmid DNA was purified using the Qiagen mini-prep kit.
About […] of the LRR sub-clone plasmid DNA was digested with NcoI and XhoI. Purified insert was ligated overnight at 16° C. using T4 DNA ligase into a XhoI/NcoI predigested pET30a (+) vector. The ratio of insert DNA to plasmid DNA was 3:1. The construct contained the hexa-his inframe with the Factor Xa vector site and 5′ end of the insert. The recombinant plasmid was transformed into DH5a cells. Positive colonies were selected on 2-fold YT plates supplemented with 50 μg/ml kanamycin and screened by digestion of mini-prep plasmid DNA with NcoI and XhoI followed by agarose gel electrophoresis. The nature of the inserts were also verified by DNA sequence analysis using the ABI 377 DNA sequencer (Foster City, Calif.).
A Quikchange site directed mutagenesis kit (Stratagene) was used for RLSH generation. Both sense and anti-sense primers were designed to loop out the 114 bp nucleotide linker region between the hexa-his tag and the first codon of RLLH. The forward primer DMF1: 5′-[…]-3′ and reverse primer DMR1: 5′-[…]-3′ were complementary in sequence and annealed to opposite stands of DNA. Amplification of template was performed with Pfu-Turbo DNA polymerase. Following amplification, the parent DNA (methylated and hemi-methylated) was digested with DpnI endonuclease (target sequence: 5′-Gm6ATC-3′). The amplified vector DNA containing the desired deletion was transformed into XL1-Blue competent cells and the cells were grown overnight in 2XYT supplemented with 50 μg/ml tetracycline and 50 μg/ml kanamycin. Colonies were picked, grown overnight, DNA purified and inserts identified by digestion of plasmid DNA with NdeI and XhoI followed by 2% (w/v) agarose gel electrophoresis. DNA was subsequently sequenced to verify looping out of the RLLH linker region. DNA from positive clones was transformed into BL21 (DE3-RIL) competent cells.
BL21-CodonPlus™-RIL series of strains contain extra copies of the E. coli argU, ileY, and leuW tRNA genes. The modification allowed for high expression of proteins that were difficult to express in conventional E. coli hosts due to the codon usage bias of the gene of interest. RHG1 protein contained 18 codons rarely used in E. coli in the LRR alone (Table 3.1). The 5 ml of LB overnight culture containing Rhg1/Rfs2 LRR or Rhg4 LRR was transferred to 1 L of M9 minimal media supplemented with ammonium sulfate and kanamycin. The cells were grown at 37° C. to an O.D of 1.0. The protein was induced with 0.4 mM IPTG and incubated at 16° C. in an orbital shaker for 18-20 h. […]

[2] = system: GmRLK8-1 LRR domain (RHG4); experiment: Binding of CLE like peptides to purified LRR domain of the RLK at Rhg4, titration by luminescence spectrometry; parameters: species or system Glycine max
Text: as §1
BL21-CodonPlus™-RIL series of strains contain extra copies of the E. coli argU, ileY, and leuW tRNA genes. The modification allowed for high expression of proteins that were difficult to express in conventional E. coli hosts due to the codon usage bias of the gene of interest. RHG1 protein contained 18 codons rarely used in E. coli in the LRR alone (Table 3.1). The 5 ml of LB overnight culture containing Rhg1/Rfs2 LRR or Rhg4 LRR was transferred to 1 L of M9 minimal media supplemented with ammonium sulfate and kanamycin. The cells were grown at 37° C. to an O.D of 1.0. The protein was induced with 0.4 mM IPTG and incubated at 16° C. in an orbital shaker for 18-20 h.
Proteins were solubilized from IBs, purified and refolded by the method described by Afzal and Lightfoot 2007, Protein Expression and Purification 53: 346-355. They were produced as in Example 9 and used for Far Western identification of interacting root proteins (FIGS. 4 & 5) and for identification of preferred ligands among small peptides found in root phloem (Table 4).

[3] = Exogenous peptide treatment of plants; assay type: in vivo; settings: phenotypes: transient wilting, increased plant vigor, increased disease resistance
[4] = system: GmRLK18-1 LRR domain; experiment: Far-Western analysis of soybean root proteins probed with the LRR domain of GmRLK18-1; assay type: binding, Glycine max; settings: 2D gel of SCN inoculated root proteins of NIL 34-23; MS identification
[5] = target: GmRLK8-1 LRR domain (from the RLK protein at Rhg4) (Glycine max); experiment: fluorescence (luminescence spectrometry) titration of peptide with purified LRR domain, in vitro
[6] = target: T1, purified GmRLK18-1 LRR domain (6x his-RHG1) (Glycine max); experiment: as above
T1 chain: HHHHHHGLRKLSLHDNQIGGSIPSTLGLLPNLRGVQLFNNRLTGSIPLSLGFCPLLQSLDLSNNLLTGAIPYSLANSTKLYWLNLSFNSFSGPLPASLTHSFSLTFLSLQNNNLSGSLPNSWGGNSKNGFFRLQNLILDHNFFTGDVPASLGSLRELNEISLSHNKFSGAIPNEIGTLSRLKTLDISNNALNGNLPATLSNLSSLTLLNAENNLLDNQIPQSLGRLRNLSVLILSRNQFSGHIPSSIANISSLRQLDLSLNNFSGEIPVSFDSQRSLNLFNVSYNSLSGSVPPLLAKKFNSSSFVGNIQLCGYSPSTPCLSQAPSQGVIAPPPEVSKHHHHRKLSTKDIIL

[7] = target: T1, purified GmRLK18-1 LRR domain (6x …); experiment: fluorescence (luminescence spectrometry) titration of peptide with purified LRR domain, in vitro; apparent Kd for dimerization
[8] = purified LRR domain, binding constants calculated from titration experiments, read-out: Kd (nM) RHG4
[9] = purified LRR domain, binding constants calculated from titration experiments, read-out: Kd (nM) RHG1

Row | Molecule | Kd [2, 8] [nM] | Kd [1, 9] [nM] | Kd [5] [nM] | Kd [6] [nM] | also measured
1 | AHEVPSGPNPISNR [T, AHEVPSGPNPISNR] | 204 |  |  |  | Kd ([1]; assays in vitro, read-out: binding constants, GmRLK18-1-LRR): 20 nM; binding by the GmRLK8-1 LRR domain protein, in words ([2]; assays in vitro): bound weakly; effect as exogenous treatment [3]: effective
2 | CTLSRLKTLDISNNALNGNLPATLSNLS [L] | 135 |  |  |  | Kd ([1]; estimated from the peptide with one diverged LRR motif, read-out: apparent Kd for dimerization): 36 nM
3 | DLPLAPADRLAPGGPDPQHNVRAPPRKP [2L] | 338 | 142 |  |  | 
4 | KGLGLHEELRTVPSGPDPLHHHVNPPRQPR [3L] | 142 | 65 |  |  | 
5 | KRLSPSGPDPHHH [N, KRLSPSGPDPHHH] |  | 30 |  |  | binding by the GmRLK18-1 derived LRR peptide, in words ([1]; assays in vitro): strong binding constant; Kd ([2]; assays in vitro, read-out: affinity, GmRLK8-1 LRR domain): 78 nM; effect as exogenous treatment [3]: effective
6 | RAELDFNYMSKRRVPNGPDPIHNRRAGNSGR [36L] | 51 | 49 |  |  | 
7 | RLAPEGPDPHHN [compound 30, RLAPEGPDPHHN] | 84 | 44 |  |  | binding by the GmRLK18-1 derived LRR peptide, in words ([1]; assays in vitro): bound weakly; binding by the GmRLK8-1 LRR domain protein, in words ([2]; assays in vitro): bound very weakly
8 | RLAPGGPDPQHN [compound 2, RLAPGGPDPQHN] | 96 | 45 |  |  | binding by the GmRLK8-1 LRR domain protein, in words ([2]; assays in vitro): bound very weakly
9 | RTVPSGPDPLHH [compound 3, RTVPSGPDPLHH] | 50 | 29 |  |  | binding by the GmRLK18-1 derived LRR peptide, in words ([1]; assays in vitro): strong binding constant
10 | SKRRVPNGPDPIHNR [compound 36, SKRRVPNGPDPIHNR] | 52 | 14 |  |  | 
11 | cyclophilin: soybean cyclophilin, GenBank gi 17981611, binds the purified LRR domain |  |  |  |  | binding to the GmRLK18-1 LRR domain in Far-Western [4]: bound strongly; also recorded: interacting partner
12 | KGLGLHEELRTVPSGPDPLHHHVNPPRQPR (modifications not checked) [peptide 3L (GmCLE3, AtCLE3, AtClv3 unmodified)] |  |  | 142 | 65 | 
13 | RLAPGGPDPQHN (modifications not checked) [peptide 2 (GmNIC1, LjCLE-R2 and LjCLE-R1)] |  |  | 96 | 45 | 
14 | RLAPEGPDPHHN (modifications not checked) [peptide 30 (GmCLE30, GmRIC1)] |  |  | 84 | 44 | 
15 | RAELDFNYMSKRRVPNGPDPIHNRRAGNSGR (modifications not checked) [peptide 36L (GmCLE34, AtCLE36, MtCLE36)] |  |  | 51 | 49 | 
16 | CTLSRLKTLDISNNALNGNLPATLSNLS (modifications not checked) [peptide L (GmLRR, GmRLK18-1)] |  |  | 135 |  | Kd [7]: 36 nM
17 | SKRRVPNGPDPIHNR (modifications not checked) [peptide 36 (GmCLE34, AtCLE36, MtCLE36)] |  |  | 52 | 14 | 
18 | DLPLAPADRLAPGGPDPQHNVRAPPRKP (modifications not checked) [peptide 2L (GmNIC1, LjCLE-R2 and LjCLE-R1)] |  |  | 338 | 142 | 
19 | KRLSPSGPDPHHH (modifications not checked) [peptide N (HgCLV3)] |  |  | 78 | 30 | 
20 | AHEVPSGPNPISNR (modifications not checked) [peptide T (GmTDIF, ZeTDIF)] |  |  | 204 | 20 | 
21 | RTVPSGPDPLHH (modifications not checked) [peptide 3 (GmCLE3, AtCLE3, AtClv3 unmodified)] |  |  | 50 | 29 | 
